Assay results taken from PubChem BioAssay AID200 (DTP/NCI, 2004).
Values joined by “and” are separate entries in the source; they are usually repeats but may differ in a detail not shown here. Equal entries are not always repeated. Inconclusive results and toxic doses are left out. Where a SMILES comes first, the peptide text is derived from it. The star is where a group is joined. Cbz = O=C(OCc1ccccc1)*

Test system: B6C3F1 mice, B16 melanoma ip, median survival T/C
Experiment: NCI In Vivo Anticancer Drug Screen. Data for tumor model B16 Melanoma (intraperitoneal) in B6C3F1 mice
Settings: endpoint: median survival time, higher = longer survival
Procedure, shortened: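 Mice bearing transplanted tumor were dosed with compound or vehicle, and survival was recorded. Activity is expressed as the treated-group measurement (T) divided by the vehicle control measurement (C).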

[1] = dose: 12.5 mg/kg/injection, schedule: Q01DX009 (ip), vehicle: Klucel (hydroxypropylcellulose) (HPC)
[2] = dose: 25.0 mg/kg/injection, schedule: Q01DX009 (ip), vehicle: Klucel (hydroxypropylcellulose) (HPC)
[3] = dose: 25.0 mg/kg/injection, schedule: Q01DX009 (ip), vehicle: water
[4] = dose: 50.0 mg/kg/injection, schedule: Q01DX009 (ip), vehicle: Klucel (hydroxypropylcellulose) (HPC)
[5] = dose: 50.0 mg/kg/injection, schedule: Q01DX009 (ip), vehicle: water
[6] = dose: 100.0 mg/kg/injection, schedule: Q01DX009 (ip), vehicle: Klucel (hydroxypropylcellulose) (HPC)
[7] = dose: 100.0 mg/kg/injection, schedule: Q01DX009 (ip), vehicle: water
[8] = dose: 6.25 mg/kg/injection, schedule: Q01DX009 (ip), vehicle: Klucel (hydroxypropylcellulose) (HPC)
[9] = dose: 1.56 mg/kg/injection, schedule: Q01DX009 (ip), vehicle: saline with Tween-80
[10] = dose: 3.12 mg/kg/injection, schedule: Q01DX009 (ip), vehicle: saline with Tween-80
[11] = dose: 6.25 mg/kg/injection, schedule: Q01DX009 (ip), vehicle: saline with Tween-80
[12] = dose: 25.0 mg/kg/injection, schedule: Q01DX009 (ip), vehicle: saline with Tween-80
[13] = dose: 50.0 mg/kg/injection, schedule: Q01DX009 (ip), vehicle: saline with Tween-80
[14] = dose: 100.0 mg/kg/injection, schedule: Q01DX009 (ip), vehicle: saline with Tween-80
[15] = dose: 200.0 mg/kg/injection, schedule: Q01DX009 (ip), vehicle: saline with Tween-80
[16] = dose: 200.0 mg/kg/injection, schedule: Q01DX009 (ip), vehicle: Klucel (hydroxypropylcellulose) (HPC)
[17] = dose: 400.0 mg/kg/injection, schedule: Q01DX009 (ip), vehicle: Klucel (hydroxypropylcellulose) (HPC)
[18] = dose: 0.25 mg/kg/injection, schedule: Q01DX009 (ip), vehicle: saline + alcohol
[19] = dose: 0.5 mg/kg/injection, schedule: Q01DX009 (ip), vehicle: saline + alcohol
[20] = dose: 1.0 mg/kg/injection, schedule: Q01DX009 (ip), vehicle: saline + alcohol
[21] = dose: 5.0 mg/kg/injection, schedule: Q01DX009 (ip), vehicle: saline
[22] = dose: 12.5 mg/kg/injection, schedule: Q01DX009 (ip), vehicle: saline with Tween-80

## COc1ccc2[nH]c3ccc4cc[n+](CCN5CCC(C6CCN(CC[n+]7ccc8ccc9[nH]c%10ccc(OC)cc%10c9c8c7)CC6)CC5)cc4c3c2c1
dose: 6.0 mg/kg/injection, schedule: Q01DX009 (ip), vehicle: water
  T/C: 155 % of control
dose: 12.0 mg/kg/injection, schedule: Q01DX009 (ip), vehicle: water
  T/C: 158 % of control
[1]
  T/C: 155 % of control
[2]
  T/C: 203 % of control
[3]
  T/C: 177 % of control
[4]
  T/C: 192 % of control
[5]
  T/C: 168 % of control
[6]
  T/C: 167 % of control
[7]
  T/C: 197 % of control

## [F][Sn]([F])([c]1ccccc1)[c]1ccccc1
dose: 1.56 mg/kg/injection, schedule: Q01DX009 (ip), vehicle: Klucel (hydroxypropylcellulose) (HPC)
  T/C: 98 % of control
dose: 3.12 mg/kg/injection, schedule: Q01DX009 (ip), vehicle: Klucel (hydroxypropylcellulose) (HPC)
  T/C: 87 % of control
[8]
  T/C: 104 % of control
[1]
  T/C: 103 % of control

## [Cl][Pt+2][Cl].[NH-]c1cc(Cl)c(Cl)c(Cl)c1[NH-]
dose: 40.0 mg/kg/injection, schedule: Q01DX009 (ip), vehicle: distilled water + Tween-80
  T/C: 109 % of control
dose: 80.0 mg/kg/injection, schedule: Q01DX009 (ip), vehicle: distilled water + Tween-80
  T/C: 102 % of control

## CC(C)[C@](O)(C(=O)OCC1=CCN2CC[C@@H](O)[C@@H]12)[C@H](C)O
[3]
  T/C: 107 % of control
[5]
  T/C: 111 % of control and 116 % of control
[7]
  T/C: 111 % of control
dose: 200.0 mg/kg/injection, schedule: Q01DX009 (ip), vehicle: water
  T/C: 117 % of control

## c1cc[c]([Sn]([c]2ccccc2)([c]2ccccc2)[n]2cccc2)cc1
dose: 0.79 mg/kg/injection, schedule: Q01DX009 (ip), vehicle: saline with Tween-80
  T/C: 113 % of control
[9]
  T/C: 98 % of control
[10]
  T/C: 93 % of control
[11]
  T/C: 113 % of control

## CC(C)C(NC(=O)OC(C)(C)C)C(=O)O (configuration not stated)
[6]
  T/C: 90 % of control

## CN(C)C1C(=O)C(C(=O)NP(=O)(NCCCO)N(CCCl)CCCl)=C(O)C2(O)C(=O)C3=C(O)c4c(O)cccc4C(C)(O)C3CC12 (configuration not stated)
dose: 12.0 mg/kg/injection, schedule: Q01DX009 (ip), vehicle: saline with Tween-80
  T/C: 105 % of control
[12]
  T/C: 103 % of control and 107 % of control
[13]
  T/C: 118 % of control and 102 % of control
[14]
  T/C: 121 % of control
[15]
  T/C: 195 % of control and 219 % of control

## CC(=O)NC(Cc1ccccc1)C(=O)NC(Cc1ccccc1)C(=O)O (stereo not drawn) (Ac-Phe-Phe-OH; configuration not given here)
[12]
  T/C: 107 % of control
[13]
  T/C: 100 % of control
[14]
  T/C: 102 % of control
[15]
  T/C: 104 % of control
dose: 400.0 mg/kg/injection, schedule: Q01DX009 (ip), vehicle: saline with Tween-80
  T/C: 92 % of control

## COC(=O)C(NC(=O)C(NC(=O)OCc1ccccc1)C(C)O)C(C)C (stereo not drawn) (Cbz-Thr-Val-OMe; configuration not given here)
[6]
  T/C: 94 % of control
[16]
  T/C: 93 % of control
[17]
  T/C: 108 % of control

## [Cl][Pt+2][Cl].[NH-]CC1(C[NH-])CCC1
dose: 0.19 mg/kg/injection, schedule: Q01DX009 (ip), vehicle: suspension in saline
  T/C: 107 % of control
dose: 0.39 mg/kg/injection, schedule: Q01DX009 (ip), vehicle: suspension in saline
  T/C: 114 % of control
dose: 0.78 mg/kg/injection, schedule: Q01DX009 (ip), vehicle: suspension in saline
  T/C: 123 % of control
dose: 1.56 mg/kg/injection, schedule: Q01DX009 (ip), vehicle: suspension in saline
  T/C: 151 % of control
dose: 3.12 mg/kg/injection, schedule: Q01DX009 (ip), vehicle: suspension in saline
  T/C: 167 % of control

## CN(C)CCCOc1nc2c(c(=O)n(C)c(=O)n2C)n1C (tested in a mixture with another compound)
[8]
  T/C: 90 % of control
[1]
  T/C: 111 % of control
[2]
  T/C: 102 % of control
[4]
  T/C: 107 % of control

## CSc1nc(=O)[nH]nc1SCc1ccccc1
[1]
  T/C: 105 % of control
[2]
  T/C: 104 % of control
[4]
  T/C: 104 % of control
[6]
  T/C: 107 % of control
[16]
  T/C: 96 % of control
[17]
  T/C: 115 % of control

## CCC(C)C(O)C(C)C(=O)C(C)/C=C(\C)CC(C)C1OC(=O)C1C (configuration not stated)
[18]
  T/C: 96 % of control
[19]
  T/C: 98 % of control and 104 % of control
[20]
  T/C: 99 % of control and 101 % of control
dose: 2.0 mg/kg/injection, schedule: Q01DX009 (ip), vehicle: saline + alcohol
  T/C: 96 % of control and 98 % of control

## CC(O)C(NC(=O)OCC1c2ccccc2-c2ccccc21)C(=O)O (configuration not stated)
[1]
  T/C: 94 % of control and 98 % of control
[2]
  T/C: 88 % of control and 96 % of control
[4]
  T/C: 100 % of control and 101 % of control
[6]
  T/C: 93 % of control and 98 % of control
[16]
  T/C: 90 % of control and 100 % of control

## S=C(N/N=C1/CCCC/C1=N/NC(=S)N1CCOCC1)N1CCOCC1
[9]
  T/C: 124 % of control
[10]
  T/C: 116 % of control
[11]
  T/C: 119 % of control

## CN(C)[C@@H]1C(=O)C(C(=O)NCN2CCN(C(=N)N=C(N)N)CC2)=C(O)[C@@]2(O)C(=O)C3=C(O)c4c(O)cccc4[C@@](C)(O)[C@H]3C[C@@H]12
dose: 0.31 mg/kg/injection, schedule: Q01DX009 (ip), vehicle: saline
  T/C: 94 % of control
dose: 0.62 mg/kg/injection, schedule: Q01DX009 (ip), vehicle: saline
  T/C: 98 % of control
dose: 1.25 mg/kg/injection, schedule: Q01DX009 (ip), vehicle: saline
  T/C: 111 % of control and 103 % of control
dose: 2.5 mg/kg/injection, schedule: Q01DX009 (ip), vehicle: saline
  T/C: 90 % of control and 103 % of control
[21]
  T/C: 101 % of control and 103 % of control

## C=C1C(O)C2(O)OCC34C(CC5C(C)=CC(=O)C(O)C5(C)C23)OC(=O)C(OC(=O)C(C)(O)CC)C14 (configuration not stated)
dose: 0.13 mg/kg/injection, schedule: Q01DX009 (ip), vehicle: saline + alcohol
  T/C: 89 % of control
[18]
  T/C: 110 % of control and 101 % of control
[19]
  T/C: 103 % of control
[20]
  T/C: 115 % of control

## C[n+]1c(/C=N/NC(N)=S)ccc2ccccc21
[11]
  T/C: 92 % of control
[22]
  T/C: 87 % of control
[12]
  T/C: 92 % of control
[13]
  T/C: 94 % of control
[14]
  T/C: 92 % of control

## Nc1nc(=S)c2ncn(C3OC(CO)CC3O)c2[nH]1 (configuration not stated)
[21]
  T/C: 110 % of control
dose: 10.0 mg/kg/injection, schedule: Q01DX009 (ip), vehicle: saline
  T/C: 122 % of control
dose: 40.0 mg/kg/injection, schedule: Q01DX009 (ip), vehicle: saline
  T/C: 94 % of control

## COC(=Nc1ccccc1)SSC(C)C
dose: 0.78 mg/kg/injection, schedule: Q01DX009 (ip), vehicle: saline with Tween-80
  T/C: 112 % of control
[9]
  T/C: 116 % of control
[10]
  T/C: 87 % of control
[22]
  T/C: 86 % of control and 104 % of control
[12]
  T/C: 87 % of control and 97 % of control
[13]
  T/C: 88 % of control
[14]
  T/C: 102 % of control

## COc1cccc2c1C(=O)c1c(O)c3c(c(O)c1C2=O)C[C@@](O)(/C(C)=N/NC(N)=S)C[C@@H]3OC1CC(N)C(O)C(C)O1 (some centres not stated)
dose: 12.5 mg/kg/injection, schedule: Q01DX001 (ip), vehicle: water
  T/C: 155 % of control and 166 % of control
dose: 25.0 mg/kg/injection, schedule: Q01DX001 (ip), vehicle: water
  T/C: 185 % of control and 202 % of control
dose: 50.0 mg/kg/injection, schedule: Q01DX001 (ip), vehicle: water
  T/C: 185 % of control and 220 % of control
dose: 100.0 mg/kg/injection, schedule: Q01DX001 (ip), vehicle: water
  T/C: 201 % of control

## CN=S(=O)(OCCCCCOS(=O)(=NC)c1ccccc1)c1ccccc1 (configuration not stated)
[22]
  T/C: 112 % of control and 201 % of control
[12]
  T/C: 119 % of control
[14]
  T/C: 198 % of control

## C/C=C/C=C1/OC(C)=C(C(C)=O)C1=O
[22]
  T/C: 99 % of control
[12]
  T/C: 99 % of control
[13]
  T/C: 106 % of control
[14]
  T/C: 98 % of control
[15]
  T/C: 109 % of control

## COC(=O)C[C@](O)(CCC(C)(C)O)C(=O)O[C@@H]1C(OC)=C[C@]23CCCN2CCc2cc4c(cc2[C@H]13)OCO4
dose: 0.25 mg/kg/injection, schedule: Q01DX009 (ip), vehicle: saline
  T/C: 124 % of control
dose: 0.5 mg/kg/injection, schedule: Q01DX009 (ip), vehicle: saline
  T/C: 154 % of control and 161 % of control
dose: 1.0 mg/kg/injection, schedule: Q01DX009 (ip), vehicle: saline
  T/C: 161 % of control and 168 % of control
dose: 2.0 mg/kg/injection, schedule: Q01DX009 (ip), vehicle: saline
  T/C: 168 % of control

## O=S1(=O)CS(=O)(=O)OCCO1
[8]
  T/C: 111 % of control
[1]
  T/C: 153 % of control and 161 % of control
[4]
  T/C: 117 % of control
